row,Compound,melting point [°C]
1,"Cn1nc(-c2ccc(F)cc2)c(-c2ccncc2)c1C(O)CCc1ccccc1 (stereo not drawn) [Example 15, 3-(4-Fluorophenyl)-5-(1-hydroxy-3-phenylpropyl)-1-methyl-4-(4-pyridyl)pyrazole]",62 to 65
2,"Cn1nc(-c2ccc(F)cc2)c(-c2ccncc2)c1C=CCc1ccccc1 [Example 29, 3-(4-Fluorophenyl)-1-methyl-5-(3-phenyl-1-propenyl)-4-(4-pyridyl)pyrazole]",136 to 137
3,"Cn1nc(-c2ccc(F)cc2)c(-c2ccncc2)c1CCCc1ccc([N+](=O)[O-])cc1 [Example 56, 3-(4-Fluorophenyl)-1-methyl-5-[3-(4-nitrophenyl)propyl]-4-(4-pyridyl)pyrazole]",129.1 to 131.8
4,"Cn1nc(-c2ccc(F)cc2)c(-c2ccncc2)c1CCCc1ccc(N)cc1 [Example 57, 5-[3-(4-Aminophenyl)propyl]-3-(4-fluorophenyl)-1-methyl-4-(4-pyridyl)pyrazole]",80.5 to 81.1
5,"Cn1nc(-c2ccc(F)cc2)c(-c2ccncc2)c1CCCc1ccccc1 [Example 58, 3-(4-Fluorophenyl)-1-methyl-5-(3-phenylpropyl)-4-(4-pyridyl)pyrazole]",83 to 87
6,"COc1ccc(CNC(=O)c2c(-c3ccncc3)c(-c3ccc(F)cc3)nn2C)cc1 [Example 69, 3-(4-Fluorophenyl)-5-(4-methoxybenzylaminocarbonyl)-1-methyl-4-(4-pyridyl)pyrazole]",162.3 to 164.8
7,"CCn1nc(-c2ccc(F)cc2)c(-c2ccncc2)c1C(=O)N(C)Cc1ccccc1 [Example 75, 1-Ethyl-5-(N-methylbenzylaminocarbonyl)-3-(4-fluorophenyl)-4-(4-pyridyl)pyrazole]",148 to 149.3
8,"CCN(Cc1ccccc1)C(=O)c1c(-c2ccncc2)c(-c2ccc(F)cc2)nn1CC [Example 76, 1-Ethyl-5-(N-ethylbenzylaminocarbonyl)-3-(4-fluorophenyl)-4-(4-pyridyl)pyrazole]",114.9 to 116.7
9,"CN(Cc1ccccc1)C(=O)c1c(-c2ccncc2)c(-c2ccc(F)cc2)nn1C [Example 77, 3-(4-Fluorophenyl)-1-methyl-5-(N-methylbenzylaminocarbonyl)-4-(4-pyridyl)pyrazole]",149.1 to 150.2
10,"COc1ccc(CN(C)C(=O)c2c(-c3ccncc3)c(-c3ccc(F)cc3)nn2C)cc1 [Example 79, 3-(4-Fluorophenyl)-1-methyl-5-(N-methyl-4-methoxybenzylaminocarbonyl)-4-(4-pyridyl)pyrazole]",150.1 to 152.6
11,"CN(Cc1ccccc1)C(=O)c1c(-c2ccncc2)c(-c2ccc(F)cc2)nn1CCO [Example 81, 3-(4-Fluorophenyl)-1-(2-hydroxyethyl)-5-(N-methylbenzylaminocarbonyl)-4-(4-pyridyl)pyrazole]",135.9 to 138.1

# Second part, the molecule after the results:
row,melting point [°C],Compound
1,187 to 188,"Fc1ccc(-c2n[nH]c(C=CCc3cccnc3)c2-c2ccncc2)cc1 [Example 26, 3(5)-(4-Fluorophenyl)-4-(4-pyridyl)-5(3)-[3-(3-pyridyl)-1-propenyl]pyrazole]"
2,215.5 to 217.5,"CC(=Cc1[nH]nc(-c2ccc(F)cc2)c1-c1ccncc1)Cc1cccnc1 [Example 27, 3(5)-(4-Fluorophenyl)-5(3)-[2-methyl-3-(3-pyridyl)-1-propenyl]-4-(4-pyridyl)pyrazole]"
3,155.5 to 156.5,"Fc1ccc(-c2n[nH]c(CCCc3ccccc3)c2-c2ccncc2)cc1 [Example 31, 3(5)-(4-Fluorophenyl)-5(3)-(3-phenylpropyl)-4-(4-pyridyl)pyrazole]"
4,143 to 144.5,"Fc1ccc(-c2n[nH]c(CCCc3ccccn3)c2-c2ccncc2)cc1 [Example 40, 3(5)-(4-Fluorophenyl)-4-(4-pyridyl)-5(3)-[3-(2-pyridyl)propyl]pyrazole]"
5,207 to 210,"Fc1ccc(-c2n[nH]c(CCCc3cccnc3)c2-c2ccncc2)cc1 [Example 43, 3(5)-(4-Fluorophenyl)-4-(4-pyridyl)-5(3)-[3-(3-pyridyl)propyl]pyrazole]"
6,144.5 to 146.5,"Fc1ccc(-c2n[nH]c(CCCn3cccn3)c2-c2ccncc2)cc1 [Example 55, 3(5)-(4-Fluorophenyl)-5(3)-[3-(1-pyrazolyl)propyl]-4-(4-pyridyl)pyrazole]"
7,225.8 to 228.4,"COc1ccc(CN(C)C(=O)c2[nH]nc(-c3ccc(F)cc3)c2-c2ccncc2)cc1 [Example 73, 3(5)-(4-Fluorophenyl)-5(3)-(N-methyl-4-methoxybenzylaminocarbonyl)-4-(4-pyridyl)pyrazole]"
8,202.9 to 204.6,"CCN(Cc1ccccc1)C(=O)c1[nH]nc(-c2ccc(F)cc2)c1-c1ccncc1 [Example 74, 5(3)-(N-Ethylbenzylaminocarbonyl)-3(5)-(4-fluorophenyl)-4-(4-pyridyl)pyrazole]"
9,144.4 to 146.8,"CCn1nc(-c2ccc(F)cc2)c(-c2ccncc2)c1C(=O)N(C)Cc1ccccn1 [Example 80, 1-Ethyl-3-(4-fluorophenyl)-5-(N-methyl-2-pyridylmethylaminocarbonyl)-4-(4-pyridyl)pyrazole]"
10,177.6 to 180.2,"Fc1ccc(-c2n[nH]c(COCc3ccccc3)c2-c2ccncc2)cc1 [Example 82, 5(3)-(Benzyloxymethyl)-3(5)-(4-fluorophenyl)-4-(4-pyridyl)pyrazole]"
11,169.2 to 173.5,"CC(OCc1ccccc1)c1[nH]nc(-c2ccc(F)cc2)c1-c1ccncc1 (stereo not drawn) [Example 83, 5(3)-[1-(Benzyloxy)ethyl]-3(5)-(4-fluorophenyl)-4-(4-pyridyl)pyrazole]"
12,187.7 to 193.5,"O=C(Cc1ccccc1)Cc1[nH]nc(-c2ccc(F)cc2)c1-c1ccncc1 [Example 86, 3(5)-(4-Fluorophenyl)-5(3)-(2-oxo-3-phenylpropyl)-4-(4-pyridyl)pyrazole]"
13,148.1 to 151,"Cn1nc(-c2ccc(F)cc2)c(-c2ccncc2)c1CC(=O)Cc1ccccc1 [Example 87, 3-(4-Fluorophenyl)-1-methyl-5-(2-oxo-3-phenylpropyl)-4-(4-pyridyl)pyrazole]"

# Source: patent US6667325B1, “Substituted pyrazole compounds” (Teikoku Hormone Mfg. Co., Ltd., priority 1999, dated 2003)
